Source: ChEMBL document CHEMBL1201862, “PubChem BioAssay data set” (2004)
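Dose response: 5 concentrations. Exposure: 48 h. Format: 96-well plates. Endpoint: linear interpolation; highest concentration if not reached. GI50 is the concentration that inhibits growth by half.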 The source made the active and inactive calls. Rule as the data show it: active = GI50 up to about 1.1 µM and inactive = higher.

Key:
Experiment in all cases: NCI-60 cell line screen, 48 h
786-0 = tested on: 786-0
A549 = tested on: A549
ACHN = tested on: ACHN
EKVX = tested on: EKVX
HCC 2998 = tested on: HCC 2998
HL-60 = tested on: HL-60
IGROV-1 = tested on: IGROV-1
LOX IMVI = tested on: LOX IMVI
MDA-N = tested on: MDA-N
NCI-H226 = tested on: NCI-H226
NCI-H23 = tested on: NCI-H23
NCI-H460 = tested on: NCI-H460
OVCAR-5 = tested on: OVCAR-5
OVCAR-8 = tested on: OVCAR-8
RXF 393 = tested on: RXF 393
SR = tested on: SR
T47D = tested on: T47D
U-251 = tested on: U-251
UACC-257 = tested on: UACC-257
UO-31 = tested on: UO-31

Measured: GI50

Cc1c(C(=O)OCc2ccccc2)[n+]([O-])c2ccccc2[n+]1[O-]
inactive: 786-0 44.1 µM | A549 22.2 µM | ACHN 74.3 µM | EKVX 25.8 µM | HCC 2998 30.8 µM | HL-60 26.1 µM | IGROV-1 13 µM | LOX IMVI 20 µM | MDA-N 41.6 µM | NCI-H226 14.5 µM | NCI-H23 33.7 µM | NCI-H460 25.4 µM | OVCAR-5 60.1 µM | OVCAR-8 48.6 µM | RXF 393 23.7 µM | SR 19.5 µM | T47D 13.4 µM | U-251 40.8 µM | UACC-257 17.8 µM | UO-31 27.8 µM

Cc1cc(-c2nc3cc(F)ccc3s2)ccc1NC(=O)C(C)N (stereo not given)
active: HCC 2998 0.097 µM | HL-60 0.249 µM | IGROV-1 0.0408 µM | NCI-H460 0.955 µM | OVCAR-5 1 µM | SR 0.351 µM | T47D 0.0847 µM
inactive: 786-0 3.76 µM | A549 3.77 µM | ACHN 3.73 µM | EKVX 3.1 µM | LOX IMVI 4.42 µM | MDA-N 4.21 µM | NCI-H226 > 25 µM | NCI-H23 2.67 µM | OVCAR-8 4.54 µM | RXF 393 3.75 µM | U-251 4.36 µM | UACC-257 4.31 µM | UO-31 3.7 µM

O=C(CCc1ccc(O)c(O)c1)NCCc1ccc(O)c(O)c1
inactive: 786-0 18.6 µM | A549 > 100 µM | ACHN > 100 µM | EKVX > 100 µM | HCC 2998 > 100 µM | HL-60 26.8 µM | IGROV-1 > 100 µM | LOX IMVI 39.7 µM | MDA-N 18.1 µM | NCI-H226 > 100 µM | NCI-H23 > 100 µM | NCI-H460 > 100 µM | OVCAR-5 > 100 µM | OVCAR-8 18.3 µM | RXF 393 > 100 µM | SR 23.9 µM | T47D > 100 µM | U-251 17.3 µM | UACC-257 > 100 µM | UO-31 > 100 µM

CC1CCC(=O)C(C(=O)CC2CC(=O)NC(=O)C2)C1 (stereo not given)
inactive: 786-0 > 100 µM | A549 > 100 µM | ACHN > 100 µM | EKVX > 100 µM | HCC 2998 > 100 µM | HL-60 > 100 µM | IGROV-1 > 100 µM | LOX IMVI > 100 µM | MDA-N > 100 µM | NCI-H226 > 100 µM | NCI-H23 > 100 µM | NCI-H460 > 100 µM | OVCAR-5 > 100 µM | OVCAR-8 > 100 µM | RXF 393 > 100 µM | SR > 100 µM | T47D > 100 µM | U-251 > 100 µM | UACC-257 > 100 µM | UO-31 > 100 µM

CCc1cc2c(c3c1CCCC3=O)CC1(C2)Cc2cc(CC)c3c(c2C1)C(=O)CCC3
inactive: 786-0 > 100 µM | A549 > 100 µM | ACHN 66.4 µM | EKVX > 100 µM | HCC 2998 > 100 µM | HL-60 61 µM | IGROV-1 > 100 µM | LOX IMVI > 100 µM | MDA-N > 100 µM | NCI-H226 > 100 µM | NCI-H23 > 100 µM | NCI-H460 93.8 µM | OVCAR-5 > 100 µM | OVCAR-8 > 100 µM | RXF 393 > 100 µM | SR 24.1 µM | T47D > 100 µM | U-251 87.5 µM | UACC-257 57.4 µM | UO-31 > 100 µM

O=C(O)[C@@H]1C[C@@H](O)CN1C(=O)OCc1ccccc1
inactive: 786-0 > 100 µM | A549 > 100 µM | ACHN > 100 µM | EKVX > 100 µM | HCC 2998 > 100 µM | HL-60 > 100 µM | IGROV-1 > 100 µM | LOX IMVI > 100 µM | MDA-N > 100 µM | NCI-H226 > 100 µM | NCI-H23 > 100 µM | NCI-H460 > 100 µM | OVCAR-5 > 100 µM | OVCAR-8 > 100 µM | RXF 393 > 100 µM | SR > 100 µM | T47D > 100 µM | U-251 > 100 µM | UACC-257 > 100 µM | UO-31 > 100 µM

COC(=O)c1cccc(C)c1C1CN=NC12Cc1cc(C)cc(C)c1C2=O (stereo not given)
inactive: 786-0 48.8 µM | A549 33.5 µM | ACHN 28.8 µM | EKVX 26.3 µM | HCC 2998 26.5 µM | HL-60 17.9 µM | IGROV-1 52.5 µM | LOX IMVI > 100 µM | MDA-N 26.7 µM | NCI-H226 61.5 µM | NCI-H23 41.4 µM | NCI-H460 30.8 µM | OVCAR-5 > 100 µM | OVCAR-8 44.8 µM | RXF 393 29.4 µM | SR 39 µM | T47D 23.2 µM | U-251 54.7 µM | UACC-257 > 100 µM | UO-31 55.1 µM

COC1C(O)C(C)OC(OC2C(Oc3cccc4c(O)c5c(=O)oc6ccc(C)c7c(=O)oc(c34)c5c67)OC(C)C(O)C2O)C1O (stereo not given)
active: 786-0 0.91 µM | SR 0.373 µM | T47D 0.968 µM | U-251 0.959 µM
inactive: A549 6.14 µM | ACHN 4.98 µM | EKVX 1.34 µM | HCC 2998 2.16 µM | HL-60 2.38 µM | IGROV-1 1.87 µM | LOX IMVI 1.14 µM | MDA-N 2.01 µM | NCI-H226 1.35 µM | NCI-H23 1.28 µM | NCI-H460 2.26 µM | OVCAR-5 4.56 µM | OVCAR-8 1.15 µM | RXF 393 1.34 µM | UACC-257 2.31 µM | UO-31 4.59 µM

O=S(=O)(c1ccccc1)C1CN(Cc2ccccc2)CCN(Cc2ccccc2)C1
inactive: 786-0 > 74 µM | A549 39.7 µM | ACHN 39.4 µM | EKVX 36.7 µM | HCC 2998 > 78 µM | HL-60 5.92 µM | IGROV-1 35.8 µM | LOX IMVI 6.25 µM | MDA-N 6.46 µM | NCI-H226 > 53.6 µM | NCI-H23 15.7 µM | NCI-H460 26.7 µM | OVCAR-5 > 100 µM | OVCAR-8 14.4 µM | RXF 393 10.4 µM | SR 7.76 µM | T47D 30 µM | U-251 33 µM | UACC-257 26.6 µM | UO-31 19.3 µM

CN(C)CCN1C(=O)c2cccc3cc([N+](=O)[O-])cc(c23)C1=O [MITONAFIDE]
active: 786-0 0.195 µM | A549 0.0716 µM | ACHN 0.0762 µM | EKVX 0.624 µM | HCC 2998 1.11 µM | HL-60 0.0676 µM | IGROV-1 0.5 µM | LOX IMVI 0.192 µM | NCI-H226 0.0789 µM | NCI-H23 0.308 µM | NCI-H460 0.0803 µM | OVCAR-5 0.762 µM | OVCAR-8 0.252 µM | RXF 393 0.337 µM | SR 0.129 µM | T47D 0.601 µM | U-251 0.213 µM | UACC-257 0.838 µM | UO-31 0.248 µM
inactive: MDA-N 1.49 µM

Cc1ccc([N+](=O)[O-])cc1S(=O)(=O)Nc1ccc(C2=NN(S(=O)(=O)c3cc([N+](=O)[O-])ccc3C)C(c3ccccc3O)C2)cc1 (stereo not given)
inactive: 786-0 30.8 µM | A549 82.2 µM | ACHN 80.4 µM | EKVX 57.7 µM | HCC 2998 > 100 µM | HL-60 > 100 µM | IGROV-1 98.9 µM | LOX IMVI > 100 µM | MDA-N > 100 µM | NCI-H226 > 100 µM | NCI-H23 53.5 µM | NCI-H460 > 100 µM | OVCAR-5 > 100 µM | OVCAR-8 > 100 µM | RXF 393 36.8 µM | SR > 100 µM | T47D > 100 µM | U-251 30.6 µM | UACC-257 > 100 µM | UO-31 > 100 µM

CCN(CC)C(=O)CCNC(C)Cc1c[nH]c2ccccc12 (stereo not given)
inactive: 786-0 > 100 µM | A549 > 100 µM | ACHN > 100 µM | EKVX > 100 µM | HCC 2998 > 100 µM | HL-60 > 100 µM | IGROV-1 > 100 µM | LOX IMVI > 100 µM | MDA-N > 100 µM | NCI-H226 > 100 µM | NCI-H23 > 100 µM | NCI-H460 > 100 µM | OVCAR-5 > 100 µM | OVCAR-8 > 100 µM | RXF 393 > 100 µM | SR > 100 µM | T47D > 100 µM | U-251 > 100 µM | UACC-257 > 100 µM | UO-31 > 100 µM

O=C1C(Cl)=C(N2CCC[C@@H]2CO)C(=O)c2c(O)ccc(O)c21
active: HL-60 0.485 µM
inactive: 786-0 1.76 µM | A549 2.08 µM | ACHN 1.6 µM | EKVX 1.87 µM | HCC 2998 2.02 µM | IGROV-1 1.79 µM | LOX IMVI 1.47 µM | MDA-N 1.54 µM | NCI-H226 1.71 µM | NCI-H23 1.64 µM | NCI-H460 1.73 µM | OVCAR-5 1.69 µM | OVCAR-8 2 µM | RXF 393 1.6 µM | SR 2.18 µM | T47D 1.78 µM | U-251 1.83 µM | UACC-257 1.76 µM | UO-31 1.82 µM

O=C(COC(c1ccc(F)cc1)c1ccc(F)cc1)N1CCN(CCCc2ccccc2)CC1
inactive: 786-0 3.94 µM | A549 3.93 µM | ACHN 3.52 µM | EKVX 4.44 µM | HCC 2998 3.59 µM | HL-60 3.31 µM | IGROV-1 5.37 µM | LOX IMVI 4.91 µM | MDA-N 3.74 µM | NCI-H226 3.01 µM | NCI-H23 1.76 µM | NCI-H460 3.57 µM | OVCAR-5 4.15 µM | OVCAR-8 3.54 µM | RXF 393 3.22 µM | SR 3.54 µM | T47D 3.3 µM | U-251 4.16 µM | UACC-257 3.38 µM | UO-31 1.7 µM
